Data as given in ChEMBL document CHEMBL1208781, “Identification of N-(2-(azepan-1-yl)-2-phenylethyl)-benzenesulfonamides as novel inhibitors of GlyT1” (Bioorg Med Chem Lett, 2010).

Columns and labels:
Type in all cases: ADME, organism-based
[1] = Plasma concentration in Sprague-Dawley rat at 2.5 umol/kg, sc after 1 hr; conditions: read-out: Drug uptake
Brain = assay: Drug level in Sprague-Dawley rat brain at 2.5 umol/kg, sc after 1 hr; conditions: in vivo
[2] = Drug level in brain to plasma in Sprague-Dawley rat at 2.5 umol/kg, sc after 1 hr

Q: Which results are given for `COc1ccccc1C(CNS(=O)(=O)c1ccc(F)c(Cl)c1)N1CCCCCC1` (centres undefined)?
A: concentration at 1 h [1]: 105 nM; Drug uptake (Brain): 168 nmol/kg; Kp at 1 h [2]: 1.6

Q: Which results are given for `COc1ccccc1C(CNS(=O)(=O)c1ccc(Cl)cc1)N1CCCCCC1` (centres undefined)?
A: concentration at 1 h [1]: 103 nM; Drug uptake (Brain): 202 nmol/kg; Kp at 1 h [2]: 1.9

Q: For `COc1ccccc1C(CNS(=O)(=O)c1ccc(C(F)(F)F)cc1)N1CCCCCC1` (centres undefined), which concentration at 1 h [1] is on record?
A: The concentration at 1 h was 72 nM.

Q: What about the Drug uptake (Brain) of the same compound?
A: Its Drug uptake is 154 nmol/kg.

Q: What about the Kp at 1 h [2] of the same compound?
A: Its Kp at 1 h is 2.1.
